Laboratory results from patent US20220362222A1, “ONCE DAILY FORMULATIONS OF TACROLIMUS” (TFF Pharmaceuticals, Inc., priority 2021, published 2022).

What was measured:
[1] = Pharmacokinetics of inhaled tacrolimus in healthy volunteers, 1 mg BID repeat dose group (Part B); format: in vivo, human
Experimental: The study is a blinded, randomized, placebo-controlled, multiple dose, dose-escalation study. Part B begins once the first three cohorts of Part A have completed and safety data has been reviewed. Twenty-four (24) healthy adult male and female (women of non-child-bearing potential only) subjects were enrolled. Eight (8) subjects were assigned to each of three dose levels (1.0 mg BID, 0.5 mg BID, or QD dose of either 1.0, 1.5, or 2.0mg, as determined by the SMC at the conclusion of Cohort 2 and after examining the safety and TDM data from that cohort) with six (6) subjects per cohort receiving tacrolimus inhalation and two (2) subjects receiving placebo.
Screening of subjects occurred within 28 days prior to the first dose administered. Study subjects were randomized to receive either a placebo or tacrolimus inhalation powder by inhalation. The subject assignment were blinded to the investigator, study coordinators and study subjects. Subjects were automatically replaced if they discontinue the study prior to dosing. On Day 1, subjects in each cohort begins receiving tacrolimus or placebo administered twice a day (every 12 hours) for Cohorts 1 and 2, and tacrolimus or placebo administered once per day (every 24 hours) for Cohort 3,through the Plastiape® inhaler. Blood samples and safety measurements were performed over 1 week as scheduled. […]
PK parameters for plasma tacrolimus are calculated as follows, as appropriate: AUC0-24: The area under the concentration-time curve, from time 0 to the 24-hour time point, as calculated by the linear trapezoidal method. If the 24-hour plasma concentration is missing, below the limit of quantification or not reportable, then this parameter will not be calculated. AUC0-t: The area under the concentration-time curve, from time 0 to the last observed non-zero concentration, as calculated by the linear trapezoidal method. […] AUC0-inf is calculated as the sum of AUC0-t plus the ratio of the last measurable plasma concentration to the elimination rate constant. […] CL/F Apparent total body clearance after oral administration, calculated as Dose/AUC0-inf. […] Kel: Apparent first-order terminal elimination rate constant calculated from a semi-log plot of the plasma concentration versus time curve. The parameter will be calculated by linear least-squares regression analysis using the maximum number of points in the terminal log-linear phase (e.g., three or more non-zero plasma concentrations). t1/2: Apparent first-order terminal elimination half-life are calculated as 0.693/Kel. Vz/F: Apparent volume of distribution during the terminal elimination phase after oral administration, calculated as […]. […]

[2] = oral administration, cited from earlier work
[3] = cited from earlier work
[4] = inhalation 1 mg BID, healthy volunteers

tacrolimus plasma exposure, actual arithmetic mean ([1]; inhalation 1 mg BID repeat dose, healthy volunteers, preliminary): 45 ng/mL
Cmin (trough) concentrations at 12 h compared with oral PK model [1, 4]: slightly higher than predicted
observed Cmax compared with oral PK model [1, 4]: lower than predicted
SMILES: C=CC[C@@H]1/C=C(\C)C[C@H](C)C[C@H](OC)[C@H]2O[C@@](O)(C(=O)C(=O)N3CCCC[C@H]3C(=O)O[C@H](/C(C)=C/[C@@H]3CC[C@@H](O)[C@H](OC)C3)[C@H](C)[C@@H](O)CC1=O)[C@H](C)C[C@@H]2OC [tacrolimus, (1R,9S,12S,13R,14S,17R,18E,21S,23S,24R,25S,27R)-1,14-dihydroxy-12-[(E)-1-[(1R,3R,4R)-4-hydroxy-3-methoxycyclohexyl]prop-1-en-2-yl]-23 ,25-dimethoxy-13,19,21,27-tetramethyl-17-prop-2-enyl-11,28-dioxa-4-azatricyclo [22.3.1.0^4.8]octacos-18-ene-2,3,10,16-tetrone]
actual trough values at 12 hours post dose compared with simulated exposure ([1]; inhalation 1 mg BID, Day 1 and Day 7): closer to the upper 90% confidence interval for simulated exposure
absorption ([2]; Prograf label): < 25%
variability of absorption (%CV range) ([2]; depending on the study): 28-58%
solubility in water [3]: practically insoluble in water
